Measurements taken from the supplement of paper PMC10307832.

What was measured:
Test in all cases: relative viability (nuclei count vs DMSO), 5 days (fraction); higher = more cells survive
[1] = system: NCI-H1395
Summary of the method: (§1)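 For relative viability, nuclei counts in treated wells were divided by those in vehicle wells. Lung cancer cell lines had been pin-tool dosed in 1536-well plates the day after seeding and cultured for 5 days, then fixed and stained in one step (final 0.05% Triton X-100, 1% formaldehyde, 1 ug/ml Hoechst) and imaged at 4×. Doses were one drug alone or a fixed anchor-drug dose plus five library-drug doses (not always all listed) in √10 steps, and values are duplicate-plate medians.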

[2] = system: NCI-H838
Summary of the method: as §1

[3] = system: HCC-15
Summary of the method: as §1

[4] = system: A-427
Summary of the method: as §1

[5] = system: NCI-H520
Summary of the method: as §1

[6] = system: NCI-H2405
Summary of the method: as §1

[7] = system: COR-L 105
Summary of the method: as §1

[8] = system: LC-2-ad
Summary of the method: as §1

[9] = system: SW 900
Summary of the method: as §1

[10] = system: CAL-12T
Summary of the method: as §1

[11] = system: NCI-H1792
Summary of the method: as §1

Cc1cn(-c2cc(NC(=O)c3ccc(C)c(Nc4nccc(-c5cccnc5)n4)c3)cc(C(F)(F)F)c2)cn1 [Nilotinib] + CC(=O)c1c(C)c2cnc(Nc3ccc(N4CCNCC4)cn3)nc2n(C2CCCC2)c1=O [Palbociclib] (partner 0.5 µM)
relative viability ([1]; first compound 0.001 µM): 0.636 | relative viability ([1]; first compound 0.01 µM): 0.692 | relative viability ([1]; first compound 0.03162 µM): 0.612 | relative viability ([1]; first compound 0.1 µM): 0.599 | relative viability ([2]; first compound 0.001 µM): 0.215 | relative viability ([2]; first compound 0.003162 µM): 0.23 | relative viability ([2]; first compound 0.01 µM): 0.188 | relative viability ([2]; first compound 0.03162 µM): 0.198 | relative viability ([2]; first compound 0.1 µM): 0.201 | relative viability ([3]; first compound 0.001 µM): 0.688 | relative viability ([3]; first compound 0.003162 µM): 0.882 | relative viability ([3]; first compound 0.01 µM): 0.87 | relative viability ([3]; first compound 0.03162 µM): 0.578 | relative viability ([3]; first compound 0.1 µM): 0.476 | relative viability ([4]; first compound 0.001 µM): 0.51 | relative viability ([4]; first compound 0.003162 µM): 0.493 | relative viability ([4]; first compound 0.01 µM): 0.524 | relative viability ([4]; first compound 0.03162 µM): 0.552 | relative viability ([4]; first compound 0.1 µM): 0.466 | relative viability ([5]; first compound 0.001 µM): 0.21 | relative viability ([5]; first compound 0.003162 µM): 0.219 | relative viability ([5]; first compound 0.01 µM): 0.241 | relative viability ([5]; first compound 0.03162 µM): 0.218 | relative viability ([5]; first compound 0.1 µM): 0.225 | relative viability ([6]; first compound 0.001 µM): 0.493 | relative viability ([6]; first compound 0.003162 µM): 0.485 | relative viability ([6]; first compound 0.01 µM): 0.529 | relative viability ([6]; first compound 0.03162 µM): 0.467 | relative viability ([6]; first compound 0.1 µM): 0.404 | relative viability ([7]; first compound 0.001 µM): 0.396 | relative viability ([7]; first compound 0.003162 µM): 0.413 | relative viability ([7]; first compound 0.01 µM): 0.28 | relative viability ([7]; first compound 0.03162 µM): 0.399 | relative viability ([7]; first compound 0.1 µM): 0.391 | relative viability ([8]; first compound 0.001 µM): 0.535 | relative viability ([8]; first compound 0.003162 µM): 0.605 | relative viability ([8]; first compound 0.01 µM): 0.561 | relative viability ([8]; first compound 0.03162 µM): 0.466 | relative viability ([8]; first compound 0.1 µM): 0.502 | relative viability ([9]; first compound 0.003162 µM): 0.47 | relative viability ([9]; first compound 0.01 µM): 0.524 | relative viability ([9]; first compound 0.03162 µM): 0.455 | relative viability ([9]; first compound 0.1 µM): 0.476 | relative viability ([10]; first compound 0.001 µM): 0.593 | relative viability ([10]; first compound 0.003162 µM): 0.438 | relative viability ([10]; first compound 0.01 µM): 0.473 | relative viability ([10]; first compound 0.03162 µM): 0.357 | relative viability ([10]; first compound 0.1 µM): 0.299 | relative viability ([11]; first compound 0.001 µM): 0.582 | relative viability ([11]; first compound 0.003162 µM): 0.684 | relative viability ([11]; first compound 0.01 µM): 0.732 | relative viability ([11]; first compound 0.1 µM): 0.89
